The IC50 is the point on the concentration scale where inhibition reaches its midpoint. In general, CC50 refers to the concentration at which the toxic effect on the cells reaches its halfway point. The term inhibition denotes the change of the read-out against control, counted positive when it falls.

In one series the test system is SGC-7901. Nature of the series: cells. The following applies: Homo sapiens, SGC-7901, 24 h.
Series [1] in a line: Cytotoxicity against human HPAEpic cells assessed as reduction in cell viability after 24 hrs by MTT assay. The settings on record: for CC50 at 24 h: HPAEpic cells; for CC50: 24 h. The format is cell-based. (Tetrazolium dyes change colour on reduction, which living cells bring about.)
A further series concerns GES1. Nature of the series: (§1) Cytotoxicity against human GES-1 cells assessed as reduction in cell viability after 24 hrs by MTT assay. The following applies: ges1, 24 h. The class given is cell-based.
Another series relates to L02. The experiment in a line: (§2) Cytotoxicity against human L02 cells assessed as reduction in cell viability after 24 hrs by MTT assay. The following applies: l02, 24 h. The format is cell-based.
For the next series, the system named is OVCAR-3. Nature of the series: cells. The following applies: Homo sapiens, OVCAR-3, 24 h.
The subject of series [2] is A549. Nature of the series: cells. The settings on record: Homo sapiens, A549, 24 h.
Description: Antiproliferative activity against human A549 cells assessed as reduction in cell viability after 24 hrs by MTT assay
The nature of series [3]: Cytotoxicity against human IOSE-80 cells assessed as reduction in cell viability after 24 hrs by MTT assay. The format is cell-based. The following applies: for CC50: 24 h; for CC50 at 24 h: IOSE-80 cells.
Another series concerns HepG2. Nature of the series: cells. The settings on record: Homo sapiens, HepG2, 24 h.
A short description of series [4]: Selectivity index, ratio of CC50 for cytotoxicity against human GES-1 cells to IC50 for antiproliferative activity against human SGC7901 cells. The settings on record: GES-1 cells (CC50) versus SGC7901 cells (IC50).
A short description of series [5]: as §1. The following applies: GES-1 cells. The class given is cell-based, GES1.
Series [6] is described as follows: as §2. The format is cell-based. The following applies: L02 cells.
A short description of series [7]: Selectivity index, ratio of CC50 for cytotoxicity against human L02 cells to IC50 for antiproliferative activity against human HepG2 cells. The settings on record: L02 cells (CC50) versus HepG2 cells (IC50).
Series [8] has as its system A549. The experiment in a line: Antiproliferative activity against human A549 cells assessed as reduction in cell viability at 5 uM after 24 hrs by MTT assay. The format is functional. The following applies: A549, 24 h.
The nature of series [9]: Selectivity index, ratio of CC50 for cytotoxicity against human HPAEpic cells to IC50 for antiproliferative activity against human A549 cells. The settings on record: HPAEpic cells (CC50) versus A549 cells (IC50).
Series [10] concerns A549. Nature of the series: Antiproliferative activity against human A549 cells assessed as reduction in cell viability at 0.625 uM after 24 hrs by MTT assay. The format is functional. The following applies: A549, 24 h.
Series [11] has as its system A549. Nature of the series: Antiproliferative activity against human A549 cells assessed as reduction in cell viability at 1.25 uM after 24 hrs by MTT assay. The format is functional. The following applies: A549, 24 h.
The subject of series [12] is A549. The experiment in a line: Antiproliferative activity against human A549 cells assessed as reduction in cell viability at 20 uM after 24 hrs by MTT assay. The format is functional. The settings on record: A549, 24 h.
For series [13], the system named is A549. The experiment in a line: Antiproliferative activity against human A549 cells assessed as reduction in cell viability at 10 uM after 24 hrs by MTT assay. The class given is functional. The settings on record: A549, 24 h.
The target in the next series is Thymidylate synthase (Homo sapiens, UniProt P04818). Nature of the series: Inhibition of human thymidylate synthase using dUMP as substrate by spectrophotometric method.
Series [14] can be described thus: Selectivity index, ratio of CC50 for cytotoxicity against human IOSE-80 cells to IC50 for antiproliferative activity against human OVCAR3 cells. The following applies: IOSE-80 cells (CC50) versus OVCAR3 cells (IC50).

Sequence of Thymidylate synthase (P04818 whole entry): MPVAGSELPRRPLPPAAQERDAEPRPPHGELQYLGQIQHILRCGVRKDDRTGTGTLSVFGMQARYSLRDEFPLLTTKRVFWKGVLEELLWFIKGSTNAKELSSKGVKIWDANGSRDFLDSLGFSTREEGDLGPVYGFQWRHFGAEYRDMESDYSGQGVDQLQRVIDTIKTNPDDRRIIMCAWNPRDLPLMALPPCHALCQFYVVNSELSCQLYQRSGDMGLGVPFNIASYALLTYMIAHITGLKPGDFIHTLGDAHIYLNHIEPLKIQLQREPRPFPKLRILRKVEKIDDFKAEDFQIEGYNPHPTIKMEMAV
Description for HepG2: Antiproliferative activity against human HepG2 cells assessed as reduction in cell viability after 24 hrs by MTT assay
Description for OVCAR-3: Antiproliferative activity against human OVCAR3 cells assessed as reduction in cell viability after 24 hrs by MTT assay
Description for SGC-7901: Antiproliferative activity against human SGC7901 cells assessed as reduction in cell viability after 24 hrs by MTT assay

On to `O=c1[nH]cc(S(=O)(=O)Nc2ccccc2-c2cn(-c3cccc(F)c3)nn2)c(=O)[nH]1`, for which the IC50 is > 20 µM in the series with SGC-7901, > 20 µM with OVCAR-3, 8.13 µM with A549 [2] and > 20 µM in the series on HepG2. Further, the CC50 at 24 h in series [1] is > 100 µM. Further, the CC50 entry (in the series on GES1; in the series with L02; in series [3]) was “Non-Toxic” throughout.

With `O=c1[nH]cc(S(=O)(=O)Nc2ccc(-c3cn(-c4cccc(F)c4)nn3)cc2)c(=O)[nH]1`, the IC50 in the series on SGC-7901 is > 20 µM; in the series on OVCAR-3, > 20 µM; in the series with A549 [2], 9.98 µM; in the series on HepG2 it was > 20 µM. The CC50 result (in series [1]; in the series with GES1; in the series with L02; in series [3]) was “Non-Toxic” each time.

With `Cc1ccccc1-n1cc(-c2ccc(NS(=O)(=O)c3c[nH]c(=O)[nH]c3=O)cc2)nn1`, the IC50 in the series on SGC-7901 came out at 13.6 µM; in the series on OVCAR-3, 7.31 µM; in the series with A549 [2] it was 3.13 µM; with HepG2 it was 14.5 µM. Besides, the CC50 result (in series [1]; in the series on GES1; in the series on L02; in [3]) was “Non-Toxic” in each case.

In the case of `Nc1nc2[nH]cc(CCc3ccc(C(=O)N[C@@H](CCC(=O)O)C(=O)O)cc3)c2c(=O)[nH]1` [PEMETREXED DISODIUM], the IC50 with SGC-7901 turned out to be 6.96 µM; in the series with OVCAR-3, 4.35 µM; against Thymidylate synthase, 2040 nM; in the series on HepG2, 3.73 µM. Moreover, the selectivity ratio is 3.25 in [4], 8.23 in series [7], 7.71 in series [9] and 3.56 in series [14]. Further, the CC50 at 24 h in series [1] is 25.4 µM; in series [5], 22.6 µM; in series [6] it was 30.7 µM; in series [3] it was 15.5 µM. Moreover, the inhibition at 5 µM in the series with A549 [8] came out at 47.1%. Further, the inhibition at 0.625 µM in the series on A549 [10] was 27.2%. Further, the inhibition at 1.25 µM in the series with A549 [11] worked out at 39.9%. For the same molecule, the inhibition at 20 µM in the series with A549 [12] turned out to be 74.7%. The inhibition at 10 µM in the series on A549 [13] was 58.7%.

For `O=c1[nH]cc(S(=O)(=O)Nc2ccc(-c3cn(-c4ccc(F)cc4)nn3)cc2)c(=O)[nH]1`, the IC50 in the series on SGC-7901 is > 20 µM; in the series with OVCAR-3 it was > 20 µM; with A549 [2] it was 9.72 µM; in the series on HepG2, > 20 µM. In addition, the CC50 at 24 h in series [1] and in series [5] was > 100 µM in each case. Further, the CC50 result (with L02; in series [3]) was “Non-Toxic” in each case.

Regarding `O=c1[nH]cc(S(=O)(=O)Nc2cccc(-c3cn(-c4ccccc4F)nn3)c2)c(=O)[nH]1`, the IC50 in the series with SGC-7901 was 16 µM; with OVCAR-3, 12.5 µM; with A549 [2] it was > 20 µM; in the series with HepG2, 13.9 µM. Further, the CC50 result (in [1]; in the series with GES1; in the series on L02; in series [3]) was “Non-Toxic” throughout.

Consider `O=c1[nH]cc(S(=O)(=O)Nc2cccc(-c3cn(-c4ccc(F)cc4)nn3)c2)c(=O)[nH]1`, for which the IC50 in the series on SGC-7901, with OVCAR-3, in the series with A549 [2] and in the series with HepG2 was > 20 µM throughout. The CC50 entry (in series [1]; in the series on GES1; in the series on L02; in series [3]) was “Non-Toxic” each time.

For the molecule `Cc1ccc(-n2cc(-c3ccc(NS(=O)(=O)c4c[nH]c(=O)[nH]c4=O)cc3)nn2)cc1`, the IC50 stood at 8.35 µM in the series on SGC-7901, 5.63 µM in the series on OVCAR-3, 5.56 µM with A549 [2] and 11.6 µM in the series with HepG2. Also, the values for the CC50 at 24 h in [1] and in [3] were 29.1 µM and 30.5 µM, respectively. Also, the cytotoxic concentration (CC50) result in the series on GES1 and with L02 was “Non-Toxic” each time.

As for `O=c1[nH]cc(S(=O)(=O)Nc2cccc(-c3cn(-c4cccc(F)c4)nn3)c2)c(=O)[nH]1`, the IC50 is > 20 µM in the series with SGC-7901, > 20 µM in the series with OVCAR-3, 7.2 µM in the series with A549 [2] and > 20 µM in the series with HepG2. The CC50 result (in series [1]; in the series on GES1; in the series with L02; in series [3]) was “Non-Toxic” throughout.

Turning to `O=c1[nH]cc(S(=O)(=O)Nc2ccccc2-c2cn(-c3ccc(F)cc3)nn2)c(=O)[nH]1`, the IC50 was > 20 µM with SGC-7901, > 20 µM with OVCAR-3, 6.39 µM with A549 [2] and > 20 µM with HepG2. The CC50 entry (in series [1]; in the series with GES1; with L02; in series [3]) was “Non-Toxic” each time.

As to `O=c1[nH]cc(S(=O)(=O)Nc2ccc(-c3cn(-c4ccccc4)nn3)cc2)c(=O)[nH]1`, the half-inhibitory concentration (IC50) turned out to be 18.8 µM in the series with SGC-7901, 18 µM in the series on OVCAR-3, 7.17 µM in the series with A549 [2] and 18 µM in the series with HepG2. Also, the CC50 entry (in [1]; with GES1; in the series with L02; in series [3]) was “Non-Toxic” each time.

As for `O=c1[nH]cc(S(=O)(=O)Nc2ccc(-c3cn(-c4ccccc4F)nn3)cc2)c(=O)[nH]1`, the half-maximal inhibitory concentration (IC50) in the series with SGC-7901 is 7.27 µM; in the series with OVCAR-3, 8.03 µM; in the series with A549 [2], 5.96 µM; in the series with HepG2, > 20 µM. Besides, the CC50 at 24 h in series [1] was 32.6 µM; in series [5], > 100 µM; in [6], > 100 µM; in series [3] it was > 100 µM.

The record behind these values is ChEMBL document CHEMBL4346687, “Design, synthesis and biological evaluation of novel uracil derivatives bearing 1, 2, 3-triazole moiety as thymidylate synthase (TS) inhibitors and as potential antitumor drugs” (Eur J Med Chem, 2019).
